According to PMC9138505, “Small Molecule 20S Proteasome Enhancer Regulates MYC Protein Stability and Exhibits Antitumor Activity in Multiple Myeloma” (Biomedicines, 2022):
Where two headings read alike, the source gives them in different places.

Experiments:
26S proteasome = test system: 26S proteasome; parameters: method as in PMID 29897236; settings: cited from earlier work
[1] = Pharmacokinetic assessment in CD-1 mice; assay type: in vivo; settings: for Cmax / Tmax: po, 100 mg/kg
Procedure: The PK study was carried out with CD-1 mice (males, 6–8 weeks of age, n = 3 per treatment group) weighing between 24.9 g to 33.7 g immediately prior to dosing. TCH-165 (100 mg/kg) was administered by oral gavage, as a homogeneous suspension in a 3:7 (v/v) propylene glycol: 5% dextrose as a vehicle. A second dose of 100 mg/kg TCH-165 was administered approximately 8 h post-initial gavage. Blood was collected at 0.5 h, 1 h, 2 h, 4 h, 8 h, 9 h, 10 h, 12 h, and 16 h post-initial gavage in lithium heparin tubes. Plasma was separated by centrifugation and analyzed using mass spectrometry.

[2] = test system: human constitutive 20S proteasome; parameters: method as in PMID 29897236; settings: i.e., 1000%; cited from earlier work
c-MYC [3] = assay: c-MYC degradation ELISA in H929 cells; assay type: cell-based, human; settings: various concentrations, 4 h
Procedure: (§1) ELISA: c-MYC degradation in L363 and H929 cells. L363 cells were grown in T-25 flasks in RPMI-1640 medium supplemented with 15% heat-inactivated fetal bovine serum (FBS) and 1% penicillin/streptomycin at 37 °C and 5% CO2. H929 cells were grown in T-25 flasks in RPMI-1640 medium supplemented with 10% FBS, 0.05 mM 2-mercaptoethanol, and 1% penicillin/streptomycin. Cells were treated with DMSO, TCH-165, or bortezomib (BTZ) at the indicated concentrations for 4 h (0.1% final DMSO concentration). Following the 4-hour treatment, cells were pelleted, washed with chilled PBS buffer, and resuspended in chilled lysis buffer (10 mM Tris, 100 mM NaCl, 1 mM EDTA, 1 mM EGTA, 1 mM NaF, 20 mM Na4P2O7, 2 mM Na3VO4, 1% Triton X-100, 10% glycerol, 0.1% SDS, and 0.5% deoxycholate; pH 7.4) supplemented with Complete Mini Protease Inhibitor Cocktail (Sigma Aldrich). The lysate was clarified by centrifugation at 5000 rpm (4 °C) for 15 min. Total protein of the lysate was quantified by bicinchoninic acid assay (BCA assay, Thermofisher Scientific; Waltham, MA, USA). and normalized to 1.5 mg/mL total protein. The supplied protocol for the human c-MYC (Total) ELISA Kit (Invitrogen; Waltham, MA, USA) was used to determine the total c-MYC concentration of the lysates. Prior to loading lysate into ELISA plate wells, lysate (5 µL) was diluted into 45 µL of supplied standard diluent buffer.

MYC = MYC degradation in MM cells, Western blot; assay type: cell-based, human; settings: RPMI-8226 cells
Procedure: Western blot: RPMI-8226 cells were grown to approximately 80% confluency in a T-75 flask. Cells were treated with either vehicle (DMSO) or TCH-165 at the indicated concentrations, for 4 h. In experiments involving bortezomib, cells were pre-treated with bortezomib (5 μM) for 1 h before adding TCH-165 or vehicle for a further 4 h. Cells were pelleted and washed with chilled PBS buffer (2X) and resuspended in chilled RIPA buffer supplemented with protease inhibitor cocktail (Sigma Aldrich; Burlington, MA, USA). Total protein was quantified by bicinchoninic acid assay (BCA assay, Thermofisher Scientific; Waltham, MA, USA), normalized to 2 mg/mL and boiled with 5X SDS loading buffer. Lysates (30 μg) were resolved on a 4–20% Tris/glycine gel and transferred to a PVDF membrane. The membrane was probed with anti MYC (Cell Signaling; cat#5605; Danvers, MA, USA) and anti-GAPDH-HRP (Santa Cruz; sc-47724 HRP; Dallas TX, USA) antibodies.

L363 cells = assay: Cell viability, CellTiter-Glo, 72 h; assay type: cell-based; settings: Homo sapiens, L-363; L363, 72 h
Procedure: (§2) RPMI-8226, L363 and NCI-H929 cells were obtained from ATCC (Manassas, VA, USA) and were maintained in RPMI medium supplemented with 10% fetal bovine serum, and 100 U/mL penicillin/streptomycin, at 37 °C with 5% CO2. DMSO was used as the compound vehicle or vehicle control at a 0.1% final concentration for both cell culture and enzyme assay.
(§3) Error bars represent SD for triplicate wells.

NCI-H929 cells = assay: Cell viability, CellTiter-Glo, 72 h; assay type: cell-based; settings: Homo sapiens; NCI-H929, 72 h; CI by 3-parameter curve
Procedure: as §2, §3

c-MYC [4] = assay: c-MYC degradation ELISA in L363 cells; assay type: cell-based, human; settings: various concentrations, 4 h
Procedure: as §1

[5] = test system: primary human MM cells of newly diagnosed patient; assay: Primary cell viability, CellTiter-Glo, 72 h
Excerpt: White blood cells (WBCs) were separated from red blood cells by the Ficoll density gradient. Multiple myeloma cells were then isolated from WBCs using human CD138 affinity magnetic beads (Miltenyi Biotec; cat#130-093-062; Gaithersburg, MD, USA) following the manufacturer’s protocol. Cells were cryopreserved in 10% DMSO in FBS. Revived cells were maintained in an RPMI medium with 10% FBS for 10 days prior to treatment. […] Cells were equilibrated to RT and CellTiter-Glo (Promega; Madison, WI, USA) solution (100 μL) was added and incubated with shaking for 10 min at RT. The assay plate was then allowed to equilibrate for 5 min at RT and luminescent readings were taken on a SpectraMax® M5. Data are presented as a percentage of the vehicle control for each experimental condition, after background subtraction. Error bars represent SD for triplicate wells.

[6] = test system: RPMI-8226, L363 and H929 cells; assay: Assessment of apoptosis, Caspase-Glo 3/7 assay; assay type: cell-based, human; settings: all three MM cell lines, 24 h (Figure S1)
Procedure: Apoptosis was evaluated with the Caspase-Glo 3/7 assay kit (Promega; Madison, WI, USA) according to the manufacturer’s instructions. […] Staurosporine (81590, Cayman), an apoptosis inducer, was used as a positive control at 10 μM concentration for 3 h of incubation. After the incubation, the caspase reagent was added to the cells and incubated at 37 °C for 30 min. The luminescent signal was detected by the EnVision plate reader (PerkinElmer; Waltham, MA, USA) and the data were analyzed by Graph Pad Prism (9.2.0, Graph Pad Software Inc., San Diego, CA, USA).

RPMI-8226 cells = assay: Cell viability, CellTiter-Glo, 72 h; assay type: cell-based, human; settings: RPMI-8226, 72 h
Procedure: as §2, §3

[7] = test system: MYC Reporter (Luc)-HCT-116 cells; assay: MYC-Luc reporter assay; assay type: cell-based
Procedure: The MYC Reporter (Luc)-HCT-116 Cell line, Catalog #60520, was bought from BPS Bioscience. MYC reporter (Luc)-HCT-116 cells were seeded in a white, clear bottom, 96-well microplate at 25,000 cells/well, in McCoy’s 5A media supplemented with 10% FBS and 1% penicillin/streptomycin. The plate was incubated at 37 °C with 5% CO2 overnight. The next day, cells were treated with 0.0 µM, 0.1 µM, 1.0 µM, 2.5 µM, 5.0 µM, 10 µM, or 20 µM TCH-165, in Opti-MEM supplemented with 0.5% FBS, 1% non-essential amino acids, 1 mM Sodium Pyruvate and 1% penicillin/streptomycin. The plate was incubated at 37 °C with 5% CO2 for 16 h. Firefly luminescence was measured using the One-Step Luciferase Assay System from BPS Biosciences.

Structure (SMILES): CCOC(=O)[C@]1(c2ccccc2)N=C(c2ccc(OC)cc2)N(Cc2ccccc2)[C@@H]1c1ccc(NCc2ccccc2)cc1 [TCH-165]
- 26S proteasome activity (26S proteasome): not affected
- concentrations at which structured proteins targeted by the 26S-ubiquitin-dependent proteasome system were not affected (26S proteasome): < 30 µM
- concentration at which disassembly of the 26S proteasome inhibited 26S-mediated degradation of ubiquitinylated substrates (26S proteasome; various cell lines, including RPMI-8226): > 30 µM
- Cmax ([1]; male, CD-1, mouse, plasma, CD-1 mice, 100 mg/kg oral bid, second dose 8 h after the first, read-out: Cmax following the second dose): 1430 ± 625 nM
- Tmax ([1]; male, CD-1, mouse, plasma, CD-1 mice, 100 mg/kg oral bid, second dose 8 h after the first, read-out: Tmax following the second dose): 12 h
- Cmax ([1]; male, CD-1, mouse, plasma, CD-1 mice, 100 mg/kg oral gavage, plasma, read-out: Cmax following the first dose): 932 ± 184 nM
- Tmax ([1]; male, CD-1, mouse, plasma, CD-1 mice, 100 mg/kg oral gavage, read-out: Tmax following the first dose): 2 h
- AUC ([1]; male, CD-1, mouse, plasma, mice, means, 100 mg/kg bid oral, read-out: AUC (nM) (0-16 for mice)): 14 µM·h
- AUC(0-t) ([1]; male, mouse, plasma, CD-1 mice, 100 mg/kg oral bid, trapezoidal method, read-out: mean AUC (0–16 h)): 14 µM·h
- metabolic lability of the ester moiety (by LC-MS) ([1]; mouse PK study): not metabolically labile
- enhancement of 20S-mediated proteolysis [2]: ~10 fold
- MYC clearance (percent MYC remaining) (c-MYC [3]): induced clearance of MYC
- efficacy of TCH-165 on MYC protein levels with proteasome blocked (MYC; TCH-165 5 μM with BTZ 5 μM): nearly completely abrogated
- MYC protein levels compared to vehicle control (MYC; TCH-165 5 μM, 4 h): reduced MYC protein levels
- CC50 (L363 cells): 5000 nM
- CC50 (NCI-H929 cells): 4300 nM
- MYC clearance (percent MYC remaining) (c-MYC [4]): induced clearance of MYC
- CC50 [5]: 1000 nM
- induction of apoptosis (caspase 3/7 activity) [6]: induction of apoptosis
- CC50 (RPMI-8226 cells; Homo sapiens): ~1000 nM
- CC50 (RPMI-8226 cells): 900 nM
- EC50 ([7]; Homo sapiens, stably transfected HCT-116 cells, 16 h, 95% CI 2.46–2.95, read-out: EC50 of decrease of MYC-mediated luciferase transcription): 2570 nM
- MYC-mediated luciferase transcription with addition of bortezomib ([7]; TCH-165 3 μM after bortezomib 10 nM, 2 h pre-incubation): restored luciferase transcription back to the levels of the vehicle control
